Target: T1, cytochrome bd quinol oxidase (Prevotella bivia, UniProt I4Z6X5)
T1 construct: gene PrebiDRAFT_0174; native complex in DDM-solubilized membranes, not purified; ORFs cyd-2 1143 bp and cyd-1 1536 bp; with Cytochrome bd ubiquinol oxidase subunit II
T1 sequence (I4Z6X5 1-511): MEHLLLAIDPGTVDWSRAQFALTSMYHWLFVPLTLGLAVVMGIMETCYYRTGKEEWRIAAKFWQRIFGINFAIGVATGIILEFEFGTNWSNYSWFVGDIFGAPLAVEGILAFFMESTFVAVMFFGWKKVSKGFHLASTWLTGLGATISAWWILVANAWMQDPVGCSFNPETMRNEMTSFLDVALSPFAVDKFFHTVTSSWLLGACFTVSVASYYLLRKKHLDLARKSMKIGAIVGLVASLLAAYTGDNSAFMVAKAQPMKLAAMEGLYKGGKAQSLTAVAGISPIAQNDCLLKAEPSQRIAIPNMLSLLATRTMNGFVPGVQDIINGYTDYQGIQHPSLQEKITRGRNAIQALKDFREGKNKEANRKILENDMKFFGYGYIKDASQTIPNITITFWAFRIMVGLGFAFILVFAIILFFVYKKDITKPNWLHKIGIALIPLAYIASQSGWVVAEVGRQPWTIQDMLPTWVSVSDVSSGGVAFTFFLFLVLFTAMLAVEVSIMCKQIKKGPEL
T1 sequence (I4Z6X4 1-380 partner): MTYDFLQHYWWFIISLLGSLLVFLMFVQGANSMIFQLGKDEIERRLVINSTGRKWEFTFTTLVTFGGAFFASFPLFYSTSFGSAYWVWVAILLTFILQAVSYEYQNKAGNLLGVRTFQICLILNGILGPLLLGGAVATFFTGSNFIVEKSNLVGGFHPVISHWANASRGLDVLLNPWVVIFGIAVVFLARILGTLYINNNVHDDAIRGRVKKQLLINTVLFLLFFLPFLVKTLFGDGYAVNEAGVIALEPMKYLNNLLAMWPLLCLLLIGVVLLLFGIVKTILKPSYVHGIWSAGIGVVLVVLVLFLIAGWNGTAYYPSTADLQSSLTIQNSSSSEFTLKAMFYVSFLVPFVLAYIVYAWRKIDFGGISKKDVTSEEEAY
Test: DMNH2 oxidation with H2O2 (peroxidase activity), double-beam photometer
Type: biochemical
Conditions: solubilized membranes; 200 µM DMNH2, H2O2 as acceptor, pH 7.0, 100 mM NaCl, anoxic

## Cc1c(C)c(O)c2ccccc2c1O [2,3-dimethyl-1,4-naphthoquinol]
  DMNH2 oxidation with H2O2 (peroxidase activity), double-beam photometer: Solubilized membranes catalyzed the oxidation of the DMNH2 with H2O2 as an electron acceptor

From PMC8585091, “Central Carbon Metabolism, Sodium-Motive Electron Transfer, and Ammonium Formation by the Vaginal Pathogen Prevotella bivia” (International Journal of Molecular Sciences, 2021)
